This is an account of results in PMC10166855, “Tau activation of microglial cGAS–IFN reduces MEF2C-mediated cognitive resilience” (Nature neuroscience, 2023).

In general, IC50 refers to the concentration at which inhibition is half-maximal.

For the experiment, the target named is human cGAS (cyclic GMP–AMP synthase) (Homo sapiens, UniProt Q8N884). Description: cell-free cGAS activity assay, ATP depletion by Kinase-Glo luminescence. It counts as biochemical. An excerpt: cell-free cGAS activity assay, ATP depletion by Kinase-Glo luminescence on human cGAS (cyclic GMP–AMP synthase) | Dose-dependent inhibition of cGAS activity (as measured in a) in response to HT-DNA.
Sequence of human cGAS (cyclic GMP–AMP synthase) (Q8N884 whole entry): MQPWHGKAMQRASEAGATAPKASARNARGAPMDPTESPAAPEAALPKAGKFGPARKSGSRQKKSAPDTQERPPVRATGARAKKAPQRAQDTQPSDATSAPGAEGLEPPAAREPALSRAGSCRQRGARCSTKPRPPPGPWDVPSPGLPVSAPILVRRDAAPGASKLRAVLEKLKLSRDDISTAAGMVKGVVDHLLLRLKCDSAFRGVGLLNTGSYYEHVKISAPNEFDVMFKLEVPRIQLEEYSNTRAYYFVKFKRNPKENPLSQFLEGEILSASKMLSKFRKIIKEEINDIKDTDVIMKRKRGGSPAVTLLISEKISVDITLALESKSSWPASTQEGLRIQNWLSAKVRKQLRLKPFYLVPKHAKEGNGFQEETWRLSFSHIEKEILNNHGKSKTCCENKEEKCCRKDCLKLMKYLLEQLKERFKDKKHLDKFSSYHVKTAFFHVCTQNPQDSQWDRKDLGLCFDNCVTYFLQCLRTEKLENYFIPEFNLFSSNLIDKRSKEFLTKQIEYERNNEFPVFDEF
A general note: Kinase-Glo reads ATP consumption through a luciferase reaction.

The substance TDI-8246 yielded a 50% inhibitory concentration (IC50) of 0.0812 µM.
